Read-outs that look alike come from different tables or passages of the source. One block for each compound: values may come before it.
What was measured:
[1] = Solubility of Compound 6A; type: physicochemical; conditions: for solubility: water, read-out: aqueous solubility
[2] = target: T1, Human TLR7 (Homo sapiens, UniProt Q9NYK1); assay: Human TLR7 EC50 in HEK293 (Table A); type: cell-based
T1 construct: expressed in transfected cells; host or cells: HEK293
T1 sequence (Q9NYK1 27-1049): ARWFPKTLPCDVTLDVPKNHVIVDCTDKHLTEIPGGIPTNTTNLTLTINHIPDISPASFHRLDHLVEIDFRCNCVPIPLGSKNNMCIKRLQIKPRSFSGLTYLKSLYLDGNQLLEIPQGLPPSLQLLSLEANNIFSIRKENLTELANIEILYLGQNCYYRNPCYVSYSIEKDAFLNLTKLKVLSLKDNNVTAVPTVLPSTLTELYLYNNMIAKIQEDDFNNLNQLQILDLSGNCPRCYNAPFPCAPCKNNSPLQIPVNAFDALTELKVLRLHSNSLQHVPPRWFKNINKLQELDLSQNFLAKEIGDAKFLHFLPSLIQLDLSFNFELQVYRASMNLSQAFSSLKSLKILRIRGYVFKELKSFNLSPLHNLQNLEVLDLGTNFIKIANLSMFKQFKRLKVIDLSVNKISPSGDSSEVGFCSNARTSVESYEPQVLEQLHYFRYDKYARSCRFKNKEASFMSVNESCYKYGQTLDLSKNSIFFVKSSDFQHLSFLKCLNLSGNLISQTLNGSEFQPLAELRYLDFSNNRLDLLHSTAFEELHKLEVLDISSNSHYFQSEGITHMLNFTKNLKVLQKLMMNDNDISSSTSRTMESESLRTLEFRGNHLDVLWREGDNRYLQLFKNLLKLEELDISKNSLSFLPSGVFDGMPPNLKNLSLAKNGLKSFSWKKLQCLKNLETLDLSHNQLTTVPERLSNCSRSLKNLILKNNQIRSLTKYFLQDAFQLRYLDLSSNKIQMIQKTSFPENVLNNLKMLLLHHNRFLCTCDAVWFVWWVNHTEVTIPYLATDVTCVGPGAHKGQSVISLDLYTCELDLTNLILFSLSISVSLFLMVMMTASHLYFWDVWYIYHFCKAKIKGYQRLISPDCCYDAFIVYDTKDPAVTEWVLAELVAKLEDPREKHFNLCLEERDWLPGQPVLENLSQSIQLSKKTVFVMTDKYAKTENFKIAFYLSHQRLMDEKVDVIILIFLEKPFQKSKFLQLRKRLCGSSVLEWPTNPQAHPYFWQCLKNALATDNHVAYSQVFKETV

[3] = Compound content, recovery and encapsulation efficiency by RP-HPLC; type: physicochemical; conditions: pellet vs supernatant after 10 mM HCl, 30 min
[4] = test system: MenB strain NZ98; assay: Bactericidal assay of sera of immunized mice against the MenB strain NZ98; type: in vivo, N. meningitidis; conditions: delivered with PLG as encapsulated or as co-lyophilized, 25 or 100 μg
Protocol: The PLG formulations described above (Vials 1-6) were reconstituted in 1.4 mL of water for injection with gentle mixing. 100 μL of the formulations were injected per mouse, corresponding to 10 μg of each MenB antigen and in case of formulations containing Compound 47, 25 μg or 100 μg of the adjuvant. Each mouse was immunized intramuscularly (50 μL at two sites) on days 0 and 14, and bled on day 28 and on day 56.
For mice injected with MenB antigen, pooled sera for each group was analyzed for bactericidal assay against the MenB strain NZ98 2 weeks post 2nd immunization.
For mice injected with MenB antigen, pooled sera for each group was also analyzed for bactericidal assay against the MenB strain NZ98 6 weeks post 2nd immunization.

[5] = Pharmacokinetic profile of Compound 47 in mice (serum, lymph nodes, muscle; LC-MS); type: in vivo; conditions: i.m. once, 1 or 4 mg/kg, various PLG formulations (Vials 1-5), up to 30 days
[6] = test system: mKC, MCP-1, IL-6, IL-10, IFNg and IL-5; assay: Serum cytokine levels in mice (sandwich ELISA); type: in vivo; conditions: i.m., 1, 3 and 24 hours, formulated in the PLG-based particles
Protocol: Mice were also injected intramuscularly with above-described monodispersion of Compound 47 at a dose of 100 μg Compound 47. Serum cytokine levels (mKC, MCP-1, IL-6, IL-10, IFNg and IL-5) were measured at 1, 3 and 24 hours using sandwich ELISA.

solubility in dichloromethane ([1]; dichloromethane): not soluble in dichloromethane
solubility ([1]; as base form): < 400 µg/mL
solubility ([1]; pH 7, as a sodium salt): > 4000 µg/mL
Structure (SMILES): Cc1ccc2c(c1)nc(N)c1ncc(CCc3ccc(OCCOCCOCCC(F)(F)P(=O)(O)O)cc3C)cc12 [Compound 6A, 3-(2-(2-(4-(2-(5-amino-8-methylbenzo[f][1,7]naphthyridin-2-yl)ethyl)-3-methylphenoxy)ethoxy)ethoxy)-1,1-difluoropropylphosphonic acid]

EC50 [2]: 23700 nM
Structure (SMILES): COc1ccc(CCc2cnc3c(N)nc4cc(C(O)(P(=O)(O)O)P(=O)(O)O)ccc4c3c2)c(C)c1 [Compound 19A]

Structure (SMILES): Cc1ccc(CCc2cnc3c(N)nc4ccccc4c3c2)c(C)c1 [Compound 47, 2-(2,4-dimethylphenethyl)benzo[f][1,7]naphthyridin-5-amine]
amount of Compound 47 encapsulated in PLG particles [3]: > 90%
protection of the immunized mice against strain NZ98 [4]: significantly enhances the protection
level of Compound 47 in serum [5]: < 1000 nM
serum cytokine levels (mKC, MCP-1, IL-6, IL-10, IFNg and IL-5) [6]: low serum cytokines
